The compounds below were run against Histone deacetylase 1 (Homo sapiens, UniProt Q13547) (assay: Inhibitory activity against human Histone deacetylase 1).
Sequence of Histone deacetylase 1 (Q13547 whole entry): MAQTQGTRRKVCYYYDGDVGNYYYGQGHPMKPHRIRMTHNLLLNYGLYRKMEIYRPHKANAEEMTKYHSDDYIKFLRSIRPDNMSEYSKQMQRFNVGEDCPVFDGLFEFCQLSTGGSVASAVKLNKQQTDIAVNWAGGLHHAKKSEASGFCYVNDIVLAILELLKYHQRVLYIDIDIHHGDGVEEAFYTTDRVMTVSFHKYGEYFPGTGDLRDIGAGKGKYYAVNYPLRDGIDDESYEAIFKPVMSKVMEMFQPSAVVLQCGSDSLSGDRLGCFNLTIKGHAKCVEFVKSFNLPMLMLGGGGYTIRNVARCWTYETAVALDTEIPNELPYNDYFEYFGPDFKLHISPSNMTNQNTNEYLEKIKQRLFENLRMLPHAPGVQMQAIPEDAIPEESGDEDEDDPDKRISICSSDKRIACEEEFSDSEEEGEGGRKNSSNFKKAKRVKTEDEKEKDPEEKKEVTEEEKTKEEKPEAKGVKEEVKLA

Row | IC50 [nM] | Compound
1 | 1 | O=C(/C=C/c1cccc(C(C(=O)Nc2ccccc2)C(=O)Nc2ccccc2)c1)NO
2 | 2.5 | O=C(CCCCCC(NC(=O)OCc1ccccc1)C(=O)Nc1cccc2cccnc12)NO (stereo not drawn)
3 | 1 | O=C(CCCCCC(C(=O)Nc1ccc2ncccc2c1)C(=O)Nc1ccc2ncccc2c1)NO

Source: ChEMBL document CHEMBL1138830, “On the function of the 14 A long internal cavity of histone deacetylase-like protein: implications for the design of histone deacetylase inhibitors” (J Med Chem, 2004)
